Measured values taken from ChEMBL document CHEMBL4138230, “New estrogen receptor antagonists. 3,20-Dihydroxy-19-norpregna-1,3,5(10)-trienes: Synthesis, molecular modeling, and biological evaluation” (Eur J Med Chem, 2018).
The source made the active and inactive calls. The rule behind the calls is not given here.

How the values were obtained:
MCF-10A = test: Growth inhibition of human MCF10A cells after 72 hrs by MTT assay; assay type: cell-based
[1] = target: T1, Estrogen receptor (Homo sapiens) (UniProt P03372); test: Antagonist activity at ERalpha in human MCF7 cells at 5 uM after 24 hrs by luciferase reporter gene assay relative to control; assay type: cell-based
T1 sequence (whole entry): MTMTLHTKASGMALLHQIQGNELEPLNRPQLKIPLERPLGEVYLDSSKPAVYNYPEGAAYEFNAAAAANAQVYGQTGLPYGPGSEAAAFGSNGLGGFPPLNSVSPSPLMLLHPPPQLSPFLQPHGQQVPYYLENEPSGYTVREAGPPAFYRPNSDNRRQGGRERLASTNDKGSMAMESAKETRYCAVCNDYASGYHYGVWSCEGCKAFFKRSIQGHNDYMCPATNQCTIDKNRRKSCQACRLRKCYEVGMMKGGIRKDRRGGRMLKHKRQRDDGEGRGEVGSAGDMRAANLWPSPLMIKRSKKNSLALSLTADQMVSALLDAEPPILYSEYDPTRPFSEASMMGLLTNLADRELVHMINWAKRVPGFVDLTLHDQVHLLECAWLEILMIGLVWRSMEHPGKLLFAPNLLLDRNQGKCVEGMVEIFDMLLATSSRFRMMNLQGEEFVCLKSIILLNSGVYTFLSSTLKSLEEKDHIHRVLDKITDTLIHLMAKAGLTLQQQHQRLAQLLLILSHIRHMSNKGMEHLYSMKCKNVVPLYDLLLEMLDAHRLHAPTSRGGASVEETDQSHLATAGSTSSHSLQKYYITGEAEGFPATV

MCF7 [2] = test: cells; conditions: Homo sapiens, MCF7, 72 h
Description: Growth inhibition of human MCF7 cells after 72 hrs by MTT assay

[3] = Growth inhibition of human MCF10A cells at <25 uM after 72 hrs by MTT assay relative to control; assay type: cell-based, MCF-10A; conditions: read-out: GI
MCF7 [4] = test: Growth inhibition of human MCF7 cells at <25 uM after 72 hrs by MTT assay relative to control; assay type: functional

Row | SMILES | IC50 (MCF-10A) [µM] | inhibition [1] | IC50 (MCF7 [2]) [µM] | inhibition at 72 h [3] [%] | growth inhibition (GI) (MCF7 [4]) [%]
1 | C[C@@H](O)[C@H]1CC[C@H]2[C@@H]3CCc4cc(O)ccc4[C@H]3CC[C@]12C | 5.9 | Active | 0.15 | – | –
2 | CC(O)[C@@]12C[C@@H]1C[C@H]1[C@@H]3CCc4cc(O)ccc4[C@H]3CC[C@@]12C (mixture of isomers) | 3.1 | Active | 0.21 | – | –
3 | C[C@H](O)[C@@]12CCCC[C@@H]1C[C@H]1[C@@H]3CCc4cc(O)ccc4[C@H]3CC[C@@]12C | 23 | Active | 4.6 | – | –
4 | CC/C(=C(\c1ccccc1)c1ccc(OCCN(C)C)cc1)c1ccccc1 [TAMOXIFEN] | – | – | 5.3 | < 50 | –
5 | COc1ccc2c(c1)CC[C@@H]1[C@@H]2CC[C@@]2(C)[C@H]1C[C@H]1CCCC[C@]12C(C)=O | – | inactive | – | < 50 | <50
6 | CC(=O)[C@H]1CC[C@H]2[C@@H]3CCc4cc(O)ccc4[C@H]3CC[C@]12C | – | inactive | – | < 50 | <50
7 | COc1ccc2c(c1)CC[C@@H]1[C@@H]2CC[C@@]2(C)[C@H]1C[C@H]1CCCC[C@]12C(C)O (mixture of isomers) | – | inactive | – | – | –
8 | CC(O)C1=CC[C@H]2[C@@H]3CCc4cc(O)ccc4[C@H]3CC[C@]12C (mixture of isomers) | 19.1 | inactive | 4.6 | – | –
9 | C[C@@H](O)[C@@]12CCCC[C@@H]1C[C@H]1[C@@H]3CCc4cc(O)ccc4[C@H]3CC[C@@]12C | – | 70% | 6.8 | < 50 | –
10 | CC(=O)[C@@]12CCCC[C@@H]1C[C@H]1[C@@H]3CCc4cc(O)ccc4[C@H]3CC[C@@]12C | – | Active | 15.8 | < 50 | –
